Solubility data for two compounds are collected here from patent US20050048001A1, “Pharmaceutical formulations of salmeterol” (priority 1999, published 2005).

Structures are written as SMILES.

The nature of this series: Solubility of forms of salmeterol in ethanol/HFA mixtures. The format is physicochemical. The conditions noted are these: mixtures of ethanol/HFA134a and ethanol/HFA227; relative to racemic salmeterol xinafoate. From the text:
FIG. 6: Chart to show the solubility of various forms of salmeterol in a number of different solvents.

On to `O=C(O)c1ccc2ccccc2c1O.OCc1cc(C(O)CNCCCCCCOCCCCc2ccccc2)ccc1O` (centres unmarked) [R-salmeterol xinafoate], for which the solubility result is reported as “significantly more soluble”.

Take `OCc1cc(C(O)CNCCCCCCOCCCCc2ccccc2)ccc1O` (stereo not drawn) [salmeterol base, 4-hydroxy-α^1-[[[6-(4-phenylbutoxy)hexyl]amino]methyl]-1,3-benzenedimethanol]: the solubility result is “substantially more soluble”.
